Source: US9751881B2, “Inhibitors of the renal outer medullary potassium channel” (Merck Sharp & Dohme Corp., priority 2013, dated 2017)
Structures can show the parent of a compound that is named as a salt.

The compounds below were run against hROMK (hKir1.1) (Homo sapiens (Human), UniProt P48048) (assay: Thallium Flux Assay (ROMK channel functional thallium flux, FLIPR-Tetra)). Conditions: HEK293 cells stably expressing hROMK (hKir1.1); unit not given in Table 4 (IC50 potencies less than 1 μM); read-out: ROMK TI IC50.
Assay type: cell-based
Protocol: Cell Culture Conditions—HEK293 cells stably expressing hROMK (hKir1.1) were grown at 37° C. in a 10% CO2 humidified incubator in complete growth media: Dulbecco's Modified Eagle Medium supplemented with non-essential amino acids, Penicillin/Streptomycin/Glutamine, G418 and FBS. At >80% confluency, the media was aspirated from the flask and rinsed with 10 mL calcium/magnesium-free PBS. […] To dislodge the cell, the side of the flask was gently banged with one's hand. The cells completely titrated and then the cells were transferred to 25 mL complete media, centrifuged at 1,500 rpm for 6 min followed by resuspension in complete growth media and determine cell concentration. […] Under ideal growth conditions and appropriate tissue culture practices, this cell line is stable for 40-45 passages.
FluxOR Kit Components (Invitrogen F10017)
• FluxOR™ Reagent (Component A) • FluxOR™ Assay Buffer (Component B)—10× Concentrate • PowerLoad™ Concentrate (Component C)—100× Concentrate • Probenecid (Component D)—Lyophilized sample is kept at −20° C. Water soluble, 100× after solubilization in 1 mL water. […] Store at 4° C. • Thallium sulfate (Tl2SO4) Concentrate (Component G)—50 mM in water. […] Can be stored at room temperature • Stimulant Buffer (prepared at 5× final concentration in 1× FluxOR™Chloride-Free Buffer): 7.5 mM thallium sulfate and 0.75 mM potassium sulfate (to give a final assay concentration of 3 mM Thallium/0.3 mM potassium). Store at 4° C. when not in use. If kept sterile, this solution is good for months.
• 1. Seed HEK-hKir1.1 cells (50 μl at 20,000 cells/well) in 384-well PDL coated Microplates • 2. Allow cells to adhere overnight in humidified 37° C./10% CO2 incubator • 3. Completely remove cell growth media from microplate and replace with 25 μl loading buffer • 4. Incubate Microplate at room temperature, protected form light, for 90 min • 5. Remove loading buffer and replace with 25 μl 1× Assay Buffer±test compound. • 6. Incubate microplate at room temperature, protected from light, for 30 min • 7. […] Excitation=400 nm, Emission=460 & 580 nm. Collect data for ˜10 min.
Data Calculation—The fluorescence intensity of wells containing 3 μM of a standard control ROMK inhibitor of the present invention was used to define the ROMK-sensitive component of thallium flux. Fluorescence in the presence of test compounds was normalized to control values to provide % fluorescence change.

Sequence of hROMK (hKir1.1) (P48048 whole entry): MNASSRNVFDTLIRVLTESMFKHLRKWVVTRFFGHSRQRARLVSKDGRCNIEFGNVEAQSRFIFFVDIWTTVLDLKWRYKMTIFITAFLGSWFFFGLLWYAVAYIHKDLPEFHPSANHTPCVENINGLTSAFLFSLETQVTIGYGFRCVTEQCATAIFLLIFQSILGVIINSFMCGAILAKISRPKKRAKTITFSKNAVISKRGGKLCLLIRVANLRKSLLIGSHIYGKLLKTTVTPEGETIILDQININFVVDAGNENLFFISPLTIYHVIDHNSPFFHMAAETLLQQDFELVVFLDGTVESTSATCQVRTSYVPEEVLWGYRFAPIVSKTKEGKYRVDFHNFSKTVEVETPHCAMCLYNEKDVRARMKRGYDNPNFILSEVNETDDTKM

| Structure (SMILES) | IC50 [nM] |
| --- | --- |
| Cc1c([C@@H](O)CN2CCC3(CC2)CCN(c2ccc(C#N)nn2)C3)ccc2c1COC2=O [Example 18, (R)-6-(8-(2-Hydroxy-2-(4-methyl-1-oxo-1,3-dihydroisobenzofuran-5-yl)ethyl)-2,8-diazaspiro[4.5]decan-2-yl)pyridazine-3-carbonitrile] | 156 |
| Cc1c([C@@H](O)CN2CCC3(CC2)CCN(c2ccc(S(C)(=O)=O)nn2)C3)ccc2c1COC2=O [Example 32, (R)-5-(1-Hydroxy-2-(2-(6-(methylsulfonyl)pyridazin-3-yl)-2,8-diazaspiro[4.5]decan-8-yl)ethyl)-4-methylisobenzofuran-1(3H)-one] | 177 |
| Cc1c([C@@H](O)CN2CCC3(CC2)CCN(c2ncc(S(C)(=O)=O)cn2)C3)ccc2c1COC2=O [Example 41, (R)-5-(1-Hydroxy-2-(2-(5-(methylsulfonyl)pyrimidin-2-yl)-2,8-diazaspiro[4.5]decan-8-yl)ethyl)-4-methylisobenzofuran-1(3H)-one] | 101 |
| CC1=CS(=O)(=O)c2ccc(N3CCC4(CCN(C[C@H](O)c5ccc6c(c5C)COC6=O)CC4)C3)cc21 [Example 88] | 353 |
| Cc1c([C@@H](O)CN2CCC3(CC2)CCN(c2nnc(S(C)(=O)=O)s2)C3)ccc2c1COC2=O [Example 62, 5-[(1R)-1-hydroxy-2-{2-[5-(methylsulfonyl)-1,3,4-thiadiazol-2-yl]-2,8-diazaspiro[4.5]dec-8-yl}ethyl]-4-methyl-2-benzofuran-1(3H)-one hydrochloride] | 210 |
| Cc1c([C@@H](O)CN2CCC3(CC2)CC(=O)N(c2nnc(S(C)(=O)=O)s2)C3)ccc2c1COC2=O [Example 71, 8-[(2R)-2-Hydroxy-2-(4-methyl-1-oxo-1,3-dihydro-2-benzofuran-5-yl)ethyl]-2-[5-(methylsulfonyl)-1,3,4-thiadiazol-2-yl]-2,8-diazaspiro[4.5]decan-3-one hydrochloride] | 142 |
| Cc1cc(C#N)c(N2CCC3(CCN(CC(O)c4ccc5c(c4C)COC5=O)CC3)CC2)nn1 (stereo not drawn) [Example 112] | 161 |
| N#Cc1ccc(N2CCC3(CCN(CC(O)c4ccc5c(c4C4CC4)COC5=O)CC3)C2)nc1 (stereo not drawn) [Example 26, 6-(8-(2-(4-Cyclopropyl-1-oxo-1,3-dihydroisobenzofuran-5-yl)-2-hydroxyethyl)-2,8-diazaspiro[4.5]decan-2-yl)nicotinonitrile] | 458 |
| Cc1c([C@@H](O)CN2CCC3(CC2)CN(c2ccc(S(C)(=O)=O)cc2)C(=O)O3)ccc2c1COC2=O [Example 94, (R)-8-(2-Hydroxy-2-(4-methyl-1-oxo-1,3-dihydroisobenzofuran-5-yl)ethyl)-3-(4-(methylsulfonyl)phenyl)-1-oxa-3,8-diazaspiro[4.5]decan-2-one] | 159 |
| Cc1c(C(O)CN2CCC3(CC2)CCN(c2ncc(C#N)cc2F)CC3)ccc2c1COC2=O (stereo not drawn) [Example 113] | 473 |
| Cc1c([C@@H](O)CN2CCC3(CC2)CN(c2cnc(S(C)(=O)=O)cn2)C(=O)O3)ccc2c1COC2=O [Example 92, (R)-8-(2-Hydroxy-2-(4-methyl-1-oxo-1,3-dihydroisobenzofuran-5-yl)ethyl)-3-(5-(methylsulfonyl)pyrazin-2-yl)-1-oxa-3,8-diazaspiro[4.5]decan-2-one] | 125 |
| Cc1c([C@@H](O)CN2CCC3(CC2)CC(=O)N(c2ccc(S(=O)(=O)C4CC4)cc2)C3)ccc2c1COC2=O [Example 70, 2-[4-(Cyclopropylsulfonyl)phenyl]-8-[(2R)-2-hydroxy-2-(4-methyl-1-oxo-1,3-dihydro-2-benzofuran-5-yl)ethyl]-2,8-diazaspiro[4.5]decan-3-one hydrochloride] | 248 |

Now from value to compound:

| IC50 [nM] | Structure (SMILES) |
| --- | --- |
| 87.5 | Cc1c([C@@H](O)CN2CCC3(CC2)CC(=O)N(c2ncc(S(C)(=O)=O)s2)C3)ccc2c1COC2=O [Example 37, (R)-8-(2-Hydroxy-2-(4-methyl-1-oxo-1,3-dihydroisobenzofuran-5-yl)ethyl)-2-(5-(methylsulfonyl)thiazol-2-yl)-2,8-diazaspiro[4.5]decan-3-one] |
| 86 | Cc1c([C@@H](O)CN2CCC3(CC2)CCN(c2ccc(S(C)(=O)=O)cn2)C3=O)ccc2c1COC2=O [Example 96, (R)-8-(2-Hydroxy-2-(4-methyl-1-oxo-1,3-dihydroisobenzofuran-5-yl)ethyl)-2-(5-(methylsulfonyl)pyridin-2-yl)-2,8-diazaspiro[4.5]decan-1-one] |
| 85.2 | Cc1c([C@@H](O)CN2CCC3(CC2)CCN(c2ccc(S(C)(=O)=O)cc2)C3=O)ccc2c1COC2=O [Example 75, 8-[(2R)-2Hydroxy-2-(4-methyl-1-oxo-1,3-dihydro-2-benzofuran-5-yl)ethyl]-2-[4-(methylsulfonyl)phenyl]-2,8-diazaspiro[4.5]decan-1-one hydrochloride] |
| 85.1 | Cc1c([C@@H](O)CN2CCC3(CC2)CCN(c2ccc(S(C)(=O)=O)nc2)C3=O)ccc2c1COC2=O [Example 55, (R)-8-(2-Hydroxy-2-(4-methyl-1-oxo-1,3-dihydroisobenzofuran-5-yl)ethyl)-2-(6-(methylsulfonyl)pyridin-3-yl)-2,8-diazaspiro[4.5]decan-1-one] |
| 75.7 | Cc1nc(N2CCC3(CCN(C[C@H](O)c4ccc5c(c4C)COC5=O)CC3)C2)ccc1S(C)(=O)=O [Example 36, (R)-5-(1-Hydroxy-2-(2-(6-methyl-5-(methylsulfonyl)pyridin-2-yl)-2,8-diazaspiro[4.5]decan-8-yl)ethyl)-4-methylisobenzofuran-1(3H)-one] |
| 60 | Cc1c([C@@H](O)CN2CCC3(CC2)CCN(c2ncc(S(C)(=O)=O)s2)C3)ccc2c1COC2=O [Example 38, (R)-5-(1-Hydroxy-2-(2-(5-(methylsulfonyl)thiazol-2-yl)-2,8-diazaspiro[4.5]decan-8-yl)ethyl)-4-methylisobenzofuran-1(3H)-one] |
| 53.4 | Cc1c([C@@H](O)CN2CCC3(CC2)CC(=O)N(c2ccc(S(C)(=O)=O)cn2)C3)ccc2c1COC2=O [Example 34, (R)-8-(2-Hydroxy-2-(4-methyl-1-oxo-1,3-dihydroisobenzofuran-5-yl)ethyl)-2-(5-(methylsulfonyl)pyridin-2-yl)-2,8-diazaspiro[4.5]decan-3-one] |
| 49.4 | COc1cc(N2CCC3(CCN(C[C@H](O)c4ccc5c(c4C)COC5=O)CC3)C2=O)ncc1C#N [Example 58, (R)-6-(8-(2-Hydroxy-2-(4-methyl-1-oxo-1,3-dihydroisobenzofuran-5-yl)ethyl)-1-oxo-2,8-diazaspiro[4.5]decan-2-yl)-4-methoxynicotinonitrile] |
| 48.7 | C[C@H]1Cc2cc(C(O)CN3CCC4(CC3)CN(c3ccc(C#N)cn3)C4)ccc2C(=O)O1 (stereo partly drawn) [Example 52A, 6-(7-(2-Hydroxy-2-((S)-3-methyl-1-oxoisochroman-6-yl)ethyl)-2,7-diazaspiro[3.5]nonan-2-yl)nicotinonitrile] |
| 41.3 | Cc1c([C@@H](O)CN2CCC3(CC2)CCN(c2ccc(S(C)(=O)=O)cc2)C3)ccc2c1COC2=O [Example 31, (R)-5-(1-Hydroxy-2-(2-(4-(methylsulfonyl)phenyl)-2,8-diazaspiro[4.5]decan-8-yl)ethyl)-4-methylisobenzofuran-1(3H)-one] |
| 26 | Cc1c([C@@H](O)CN2CCC3(CC2)CCN(c2cc(C#N)ccn2)C3)ccc2c1COC2=O [Example 13, (R)-2-(8-(2-Hydroxy-2-(4-methyl-1-oxo-1,3-dihydroisobenzofuran-5-yl)ethyl)-2,8-diazaspiro[4.5]decan-2-yl)isonicotinonitrile] |
| 17.6 | Cc1cc2c(cc1C(O)CN1CCC3(CC1)CCN(c1ccc(C#N)cn1)C3)COC2=O (single isomer, unassigned) [Example 24A, 6-(8-(2-Hydroxy-2-(6-methyl-1-oxo-1,3-dihydroisobenzofuran-5-yl)ethyl)-2,8-diazaspiro[4.5]decan-2-yl)nicotinonitrile] |
| 16.7 | COc1cc(N2CC3(CCN(C[C@H](O)c4ccc5c(c4C)COC5=O)CC3)OCC2=O)ncc1C#N [Example 102, (R)-6-(9-(2-Hydroxy-2-(4-methyl-1-oxo-1,3-dihydroisobenzofuran-5-yl)ethyl)-3-oxo-1-oxa-4,9-diazaspiro[5.5]undecan-4-yl)-4-methoxynicotinonitrile] |
| 10 | Cc1c([C@@H](O)CN2CCC3(CC2)CCN(c2ccc(C#N)cn2)C3)ccc2c1COC2=O [Example 3, (R)-6-(8-(2-hydroxy-2-(4-methyl-1-oxo-1,3-dihydroisobenzofuran-5-yl)ethyl)-2,8-diazaspiro[4.5]decan-2-yl)nicotinonitrile] |

Same assay, conditions: read-out: ROMK TI IC50

| IC50 [nM] | Structure (SMILES) |
| --- | --- |
| 26 | Cc1c([C@@H](O)CN2CCC3(CC2)CCN(c2ccc(C#N)cn2)CC3)ccc2c1COC2=O [Example 104] |
